This is an account of results in patent US4704395A, “Cyclic ether esters of 2-substituted-6-(substituted and unsubstituted) dihydrolysergic acid useful as 5HT receptor antagonists” (Eli Lilly and Company, priority 1985, dated 1987).

The assay deals with T1, 5HT2 receptors (Rattus norvegicus, UniProt P14842).
T1 construct: their external jugular veins and thoracic aortas dissected free of connective tissue; from tissue; host or cells: external jugular vein of male Wistar rats
T1 sequence (P14842 whole entry): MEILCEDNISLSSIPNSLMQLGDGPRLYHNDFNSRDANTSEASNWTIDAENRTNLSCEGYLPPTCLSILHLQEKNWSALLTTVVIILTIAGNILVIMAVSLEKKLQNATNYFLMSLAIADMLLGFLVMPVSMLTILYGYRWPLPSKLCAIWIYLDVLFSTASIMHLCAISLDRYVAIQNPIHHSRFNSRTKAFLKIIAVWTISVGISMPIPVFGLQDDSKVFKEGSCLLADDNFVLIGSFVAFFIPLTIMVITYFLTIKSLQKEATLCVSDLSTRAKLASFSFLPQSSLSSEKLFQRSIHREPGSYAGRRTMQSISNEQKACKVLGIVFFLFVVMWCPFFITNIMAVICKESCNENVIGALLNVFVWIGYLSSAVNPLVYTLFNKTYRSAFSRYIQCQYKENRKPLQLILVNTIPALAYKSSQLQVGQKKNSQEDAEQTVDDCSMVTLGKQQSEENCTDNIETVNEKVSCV
Kind of assay: Apparent dissociation constants (KB) for 5HT2 receptors determined in the rat jugular vein (antagonism of serotonin contraction). To be noted: antagonist incubated one hour, 37° C., maleate salt, read-out: Apparent Dissociation Constants for 5HT2 receptors, -Log Kb ± S.E. (converted). As to the method:
An initial optimum resting force of 1 and 4 g was applied to the jugular vein and aorta, respectively. […] Exp. Ther., 205, 400 (1978). Alpha receptor antagonist activity was evaluated in the aorta.
The Kb is the affinity of an antagonist, worked out from how it opposes an agonist. On to `CC(C)n1cc2c3c(cccc31)[C@H]1C[C@@H](C(=O)OCCCC3CCCO3)CN(C)[C@@H]1C2` (stereo partly shown), for which the Kb is 5.62 nM.

Turning to `CC(C)n1cc2c3c(cccc31)[C@H]1C[C@@H](C(=O)OCC3CCCO3)CN(C)[C@@H]1C2` (stereo partly shown), the antagonist dissociation constant (Kb) was 6.31 nM.

Regarding `CC(C)n1cc2c3c(cccc31)[C@H]1C[C@@H](C(=O)OCC3CCCCO3)CN(C)[C@@H]1C2` (stereo partly shown), the Kb was 1.91 nM.

Turning to `CC(C)n1cc2c3c(cccc31)[C@H]1C[C@@H](C(=O)OC3CCOCC3)CN(C)[C@@H]1C2`, the Kb was 0.129 nM.
